One may read the Km as the concentration of substrate that gives half-maximal velocity. In general, Vmax refers to the rate approached at saturating substrate.

Experiment [1] deals with T1, Rat recombinant α2,3(O)ST (Rattus norvegicus, UniProt Q11205).
T1 construct: purchased Calbiochem
T1 sequence (Q11205 1-350): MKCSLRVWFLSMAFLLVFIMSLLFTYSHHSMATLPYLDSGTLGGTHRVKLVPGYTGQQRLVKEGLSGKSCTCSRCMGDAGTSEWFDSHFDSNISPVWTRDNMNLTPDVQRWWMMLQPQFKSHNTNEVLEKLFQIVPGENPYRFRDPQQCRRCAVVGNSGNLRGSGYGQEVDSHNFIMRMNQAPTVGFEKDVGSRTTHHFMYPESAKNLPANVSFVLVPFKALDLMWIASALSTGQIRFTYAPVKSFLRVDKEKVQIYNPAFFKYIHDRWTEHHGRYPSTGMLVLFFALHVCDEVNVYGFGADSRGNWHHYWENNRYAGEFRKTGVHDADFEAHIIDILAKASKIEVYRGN
Put plainly: Sialyltransferase assay with cloned α2,3(O)ST. The following applies: for Km / Vmax: CMP-NeuAc 150 μM, Lineweaver-Burke plot. The experiment is classed as biochemical. How it is done:
Rat recombinant α2,3(O)ST, α2,3(N)ST and α2,6(N)ST were purchased from Calbiochem and stored at either −20° C. or −70° C. as recommended by the supplier. […] 10 μl aliquots of the diluted enzymes were used in the assays run in duplicate.
(§1) The incubation mixtures run in duplicate contained 0.1M NaCacodylate buffer pH6.0, the acceptor (typically at 7.5 mM, or as indicated in some experiments), CMP-[9 ^3H] NeuAc (typically 0.2 μci; 20 μci/nmol or as indicated in some experiments) and the enzyme in a total volume of 20 μl. The control incubation mixtures contained everything except the acceptor. Incubation was carried out for 2 h at 37° C. The enzymatic transfer of [9-^3H] NeuAc to a typical acceptor was linear for 2 h and less than 30% CMP-[9-^3H] NeuAc was utilized. Chromatography, using either Dowex-1-Formate, Sep-Pak C18 or Biogel P2, was applied to separate radioactive product from un-reacted [9-^3H] NeuAc as described below.
(§2) The radioactive products from neutral allyl and methyl glycosides as well as non-glycosides were measured by fractionation on Dowex-1-Formate (Bio-Rad: AG-1X8; 200-400 mesh; format form) as follows: The incubation mixture was diluted with 1.0 ml water and passed through AG-1-formate column (1.0 ml bed volume in a Pasteur pipet which had been washed with 5 ml of 2M Formic acid followed by 10 ml water). The column was washed twice with 1.0 ml water after the entry of the sample and then eluted with 3.0 ml of 0.1M NaCl. The radioactivity present in water and 0.1M NaCl eluates were measured separately using 3a70 scintillation cocktail (Research Products International, Mount Prospect, Ill.) and a Beckman LS6500 scintillation counter. The CPM values were corrected by subtracting the blank CPM. Any radioactivity present in the water eluate (as noticed in the case of some methylglycosides) was added to the corresponding CPM value of 0.1M NaCl eluate. The radioactive products from sulfated and/or sialylated methylglycosides were also measured by the above procedure, only the elution of the AG-1-Formate column was continued further with 3.0 ml of 0.2M NaCl for achieving a complete elution of the radioactive product, a correction being made as before by subtracting the corresponding blank values.
(§3) The radioactive products from benzylglycosides and monosialylated benzylglycosides were measured by hydrophobic chromatography on Sep-Pak C18 cartridge (Waters, Milford, Mass.) and eluting the product with 3.0 ml methanol (30). The radioactivity was determined by liquid scintillation as above.
(§4) For such work, a Biogel P2 column (Fine Mesh; 1.0×116.0 cm) was used with 0.1M pyridine acetate pH5.4 as the eluent at room temperature. The effluent fractions were monitored for radioactivity and the first peak containing radioactivity was collected, lyophilized to dryness, dissolved in 200 μl of water and stored frozen at −20° C. for thin layer chromatography (TLC) and other experimentation.

A further experiment relates to LNCaP α2,3(O)ST. In words: Sialyltransferase assay with LNCaP cell extract. It is filed as biochemical, human. The protocol: The prostate carcinoma cell line, LNCaP, was grown in RPMI 1640 supplemented with 10% fetal bovine serum and antibiotics (penicillin, streptomycin and amphotericin B) under conditions recommended by American Type Culture Collection (Manassas, Va.). The cells were homogenized with 0.1M Tris-Maleate pH6.3 containing 2% Triton X-100 using a Dounce all glass hand-operated homogenizer. The homogenate was centrifuged at 16,000 g for 1 h at 4° C. Protein concentration in supernatant was measured using the BCA assay (Pierce Biotech, Inc., Rockford, Ill.), with BSA as the standard. The supernatant was adjusted to 5 mg protein/ml by adding the necessary amount of extraction buffer and then stored frozen at −20° C. until use. 10 μl aliquot of this extract was used in assays run in duplicate.
as §1, §2, §3, §4

Setting [2] is: Table IV, compound 7.5 mM, relative to Galβ1,3(GlcNAcβ1,6)GalNAcα-O—Al.
The mark [3] stands for this setting: Table I, acceptor 7.5 mM, 100% = 40560 CPM (3-O-MeGalβ1,4GlcNAcβ1,6(Galβ1,3)GalNAcα-O-Bn).
The mark [4] stands for this setting: Table II, acceptor 0.75 mM, relative to Galβ1,3GalNAcα-O-Bn.
Setting [5] is: Table II, acceptor 7.5 mM, relative to Galβ1,3GalNAcα-O-Bn.

Regarding `CC(=O)NC1C(OCC2OC(OCc3ccccc3)C(NC(C)=O)C(OC3OC(CO)C(O)C(OS(=O)(=O)O)C3O)C2O)OC(CO)C(O)C1O` (stereo not shown) [3-O-SulfoGalβ1,3(GlcNAcβ1,6)GalNAcα-O-Bn, 3-O-SulfoGalβ1,3(GlcNAcβ1,6) GalNAcα-O-Bn], the “Sialyltransferase activity (%) Cloned α2,3(O)ST” value in experiment [1] (setting [2]) turned out to be 54.7%.
Turning to `CO[C@H]1O[C@H](CO)[C@H](O)[C@H](O[C@@H]2O[C@H](CO)[C@H](O)[C@H](O[C@@H]3O[C@H](C)[C@H](O)[C@H](OS(=O)(=O)O)[C@H]3O)[C@H]2NC(C)=O)[C@H]1O` [3-O-SulfoD-Fucβ1,3GalNAcβ1,3Galα-O-Me], in experiment [1], the Km is 2000 µM and the maximal velocity (Vmax) is 624 pmol/h.
`CC(=O)N[C@H]1[C@H](OC[C@H]2O[C@H](OCc3ccccc3)[C@H](NC(C)=O)[C@@H](O[C@@H]3O[C@H](CO)[C@H](O)[C@H](O)[C@H]3O[C@@H]3O[C@@H](C)[C@@H](O)[C@@H](O)[C@@H]3O)[C@H]2O)O[C@H](CO)[C@@H](O)[C@@H]1O` [Fucα1,2Galβ1,3(GlcNAcβ1,6)GalNAcα-O-Bn]: in experiment [1], the Km was determined as 1820 µM and the maximal velocity (Vmax) amounted to 197 pmol/h. Besides, the “Sialyltransferase activity (%) Cloned α2,3(O)ST” value in experiment [1] (setting [2]) is listed as 45.4%.
As to `COC1OC(CO)C(O)C(OC2OC(CO)C(O)C(OC3OC(CO)C(O)C(OS(=O)(=O)O)C3O)C2NC(C)=O)C1O` (stereo not shown) [3-O-SulfoGalβ1,3GalNAcβ1,3Galα-O-Me], in experiment [1], the Michaelis-Menten constant (Km) was 1250 µM and the Vmax is 416 pmol/h.
Turning to `CC(=O)NC1C(OC2C(O)C(CO)OC(OC3C(CO)OC(OCc4ccccc4)C(NC(C)=O)C3O)C2O)OC(CO)C(OC2OC(CO)C(O)C(O)C2O)C1O` (stereo not shown) [Galβ1,4GlcNAcβ1,3Galβ1,4GlcNAcβ-O-Bn], the “Sialyltransferase activity (%) Cloned α2,3(O)ST” value in experiment [1] (setting [3]) came to 8.7%.
With `COC[C@H]1O[C@H](OCc2ccccc2)[C@H](NC(C)=O)[C@@H](O[C@@H]2O[C@H](CO)[C@H](O)[C@H](OC)[C@H]2O)[C@H]1O` [3-O-MeGalβ1,3(6-O-Me)GalNAcα-O-Bn], in experiment [1] (setting [4]), the “Sialyltransferase activity (%) Cloned α2,3(O)ST” value stood at 55.9%. Besides, in the experiment on LNCaP α2,3(O)ST (setting [4]), the “Sialyltransferase activity (%) LNCaP α2,3(O)ST” value came to 1.1%.
As for `COC1OC(COC2OC(CO)C(OC3OC(CO)C(O)C(OC4(C(=O)O)CC(O)C(NC(C)=O)C(C(O)C(O)CO)O4)C3O)C(O)C2NC(C)=O)C(O)C(OC2OC(CO)C(O)C(O)C2O)C1NC(C)=O` (stereo not shown) [NeuAcα2,3Galβ1,4GlcNAcβ1,6(Galβ1,3)GalNAcα-O-Me], in experiment [1] (setting [3]), the “Sialyltransferase activity (%) Cloned α2,3(O)ST” value was 35.2%. Further, in the experiment with LNCaP α2,3(O)ST (Table I, acceptor 7.5 mM, 100% = 30930 CPM (3-O-MeGalβ1,4GlcNAcβ1,6(Galβ1,3)GalNAcα-O-Bn)), the “Sialyltransferase activity (%) LNCaP α2,3(O)ST” value amounted to 5.1%.
In the case of `CO[C@H]1[C@@H](O)[C@@H](CO)O[C@@H](O[C@H]2[C@@H](O)[C@@H](CO)O[C@H](OCc3ccccc3)[C@@H]2NC(C)=O)[C@@H]1O` [3-O-MeGalβ1,3GalNAcα-O-Bn], the figures for the “Sialyltransferase activity (%) Cloned α2,3(O)ST” value in experiment [1] (setting [4]) and in experiment [1] (setting [5]) were 70.4% and 101.8%, respectively. The “Sialyltransferase activity (%) LNCaP α2,3(O)ST” value amounted to 2.6% in the experiment with LNCaP α2,3(O)ST (setting [4]) and 15.5% in the experiment with LNCaP α2,3(O)ST (setting [5]).
In the case of `COC1OC(COC2OC(COS(=O)(=O)O)C(OC3OC(CO)C(O)C(OC4(C(=O)O)CC(O)C(NC(C)=O)C(C(O)C(O)CO)O4)C3O)C(OC3OC(C)C(O)C(O)C3O)C2NC(C)=O)C(O)C(OC2OC(CO)C(O)C(O)C2O)C1NC(C)=O` (stereo not shown) [NeuAcα2,3Galβ1,4(6-O-Sulfo)(Fucα1,3)GlcNAcβ1,6(Galβ1,3)GalNAcα-O-Me], the “Sialyltransferase activity (%) Cloned α2,3(O)ST” value in experiment [1] (setting [3]) came out at 7.4%.
As to `CO[C@H]1[C@@H](O)[C@@H](CO)O[C@@H](O[C@H]2[C@@H](O)[C@@H](CO[C@@H]3O[C@H](CO)[C@@H](O)[C@H](O)[C@H]3NC(C)=O)O[C@H](OCc3ccccc3)[C@@H]2NC(C)=O)[C@@H]1O` [3-O-MeGalβ1,3(GlcNAcβ1,6)GalNAcα-O-Bn, 3-O-MeGalβ1,3(GlcNAcβ1,6) GalNAcα-O-Bn], the “Sialyltransferase activity (%) Cloned α2,3(O)ST” value in experiment [1] (setting [2]) is 24.7%.

The values are drawn from patent US20100221763A1, “Specific Acceptors for Transferases to Saccharides and Method for Obtaining and Using Same” (Health Research, Inc, priority 2005, published 2010).
